Source: patent US20110082130A1 (LIGAND PHARMACEUTICALS, INC., priority 2006, published 2011)
pKi: −log10 of the molar value.

Target: T1, chimeric human H3 receptor (Homo sapiens, UniProt Q9Y5N1)
T1 construct: made in house; host or cells: Sf9 insect cells (baculovirus); P2 membrane preparation
Assay: Chimeric human H3 receptor GTP binding assay (agonist-stimulated GTP-gamma35S binding, Example 7)
Format: biochemical
Settings: Table II; "*" = Ki in assay of Example 7 less than 1 micromolar
Method in brief: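 Sf9 membranes co-expressing chimeric human H3 receptor and heterotrimeric G-protein, 35 μg/tube, in pH 7.4 Tris buffer with 10 μM GDP. Test compounds (10^−10–10^−6 M) competed against 1 μM histamine, […] GTP-gamma35S, 60 min at room temperature. Filter-bound radioactivity counted; IC50 converted to Ki by Cheng-Prusoff. Agonism/inverse agonism tested without histamine (EC50).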

T1 sequence (Q9Y5N1 with tags, fused parts or gaps): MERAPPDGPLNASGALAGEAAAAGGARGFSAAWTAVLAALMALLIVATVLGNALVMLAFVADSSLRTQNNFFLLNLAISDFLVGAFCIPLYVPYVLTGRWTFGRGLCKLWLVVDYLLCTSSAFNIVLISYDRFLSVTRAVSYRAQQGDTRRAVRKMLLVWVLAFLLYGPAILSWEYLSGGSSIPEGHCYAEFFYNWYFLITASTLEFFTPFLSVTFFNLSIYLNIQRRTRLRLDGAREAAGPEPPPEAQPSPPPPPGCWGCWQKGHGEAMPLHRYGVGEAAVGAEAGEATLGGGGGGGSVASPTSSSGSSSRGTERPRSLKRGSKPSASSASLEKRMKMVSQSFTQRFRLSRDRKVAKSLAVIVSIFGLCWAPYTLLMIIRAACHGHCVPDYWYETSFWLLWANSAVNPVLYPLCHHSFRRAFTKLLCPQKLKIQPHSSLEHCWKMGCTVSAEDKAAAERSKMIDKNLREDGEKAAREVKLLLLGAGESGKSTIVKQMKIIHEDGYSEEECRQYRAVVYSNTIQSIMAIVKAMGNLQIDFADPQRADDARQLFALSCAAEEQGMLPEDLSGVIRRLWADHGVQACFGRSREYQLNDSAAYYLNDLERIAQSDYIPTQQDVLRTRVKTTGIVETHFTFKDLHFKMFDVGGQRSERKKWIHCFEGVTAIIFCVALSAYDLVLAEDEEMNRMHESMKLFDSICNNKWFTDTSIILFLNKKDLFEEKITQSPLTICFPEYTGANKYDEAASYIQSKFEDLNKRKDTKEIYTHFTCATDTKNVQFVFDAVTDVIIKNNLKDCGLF

pKi	Compound
> 6.00	O=C(CN1CCc2nn(-c3ccc(C(F)(F)F)cc3)cc2C1)N1CCN(C2CCC2)CC1 [Compound 237, 5-[2-(4-cyclobutylpiperazin-1-yl)-2-oxoethyl]-2-[4-(trifluoromethyl)phenyl]-4,5,6,7-tetrahydro-2H-pyrazolo[4,3-c]pyridine]
> 6.00	COc1ccc(-n2cc3c(n2)CCN(CC(=O)N2CCN(C4CCC4)CC2)C3)cc1 [Compound 238, 5-[2-(4-cyclobutylpiperazin-1-yl)-2-oxoethyl]-2-(4-methoxyphenyl)-4,5,6,7-tetrahydro-2H-pyrazolo[4,3-c]pyridine]
> 6.00	CC1(C)CN(CC(=O)N2CCN(C3CCC3)CC2)Cc2cnc(N3CCOCC3)nc21 [Compound 239, 6-[2-(4-cyclobutylpiperazin-1-yl)-2-oxoethyl]-8,8-dimethyl-2-morpholin-4-yl-5,6,7,8-tetrahydropyrido[4,3-d]pyrimidine]
> 6.00	O=C(CN1CCc2nc(N3CCOCC3)cnc2C1)N1CCN(C2CCC2)CC1 [Compound 240, 6-[2-(4-cyclobutylpiperazin-1-yl)-2-oxoethyl]-2-morpholin-4-yl-5,6,7,8-tetrahydropyrido[3,4-b]pyrazine]
> 6.00	O=C(CN1CCc2ncc(N3CCOCC3)nc2C1)N1CCN(C2CCC2)CC1 [Compound 241, 6-[2-(4-cyclobutylpiperazin-1-yl)-2-oxoethyl]-3-morpholin-4-yl-5,6,7,8-tetrahydropyrido[3,4-b]pyrazine]
> 6.00	O=C(CN1CCc2nc(N3CCC(F)(F)C3)ccc2C1)N1CCN(C2CCC2)CC1 [Compound 242, 6-[2-(4-cyclobutylpiperazin-1-yl)-2-oxoethyl]-2-(3,3-difluoropyrrolidin-1-yl)-5,6,7,8-tetrahydro-1,6-naphthyridine]
> 6.00	NC(=O)c1cnn(-c2ccc3c(c2)CCN(CC(=O)N2CCN(C4CCC4)CC2)C3)c1 [Compound 243, 1-{2-[2-(4-cyclobutylpiperazin-1-yl)-2-oxoethyl]-1,2,3,4-tetrahydroisoquinolin-6-yl}-1H-pyrazole-4-carboxamide]
> 6.00	N#Cc1cnn(-c2ccc3c(c2)CCN(CC(=O)N2CCN(C4CCC4)CC2)C3)c1 [Compound 244, 1-{2-[2-(4-cyclobutylpiperazin-1-yl)-2-oxoethyl]-1,2,3,4-tetrahydroisoquinolin-6-yl}-1H-pyrazole-4-carbonitrile]
> 6.00	CCN(C)c1ccc2c(n1)CCN(CC(=O)N1CCN(C3CCC3)CC1)C2 [Compound 245, 6-[2-(4-cyclobutylpiperazin-1-yl)-2-oxoethyl]-N-ethyl-N-methyl-5,6,7,8-tetrahydro-1,6-naphthyridin-2-amine]
> 6.00	CN(C)c1ncc2c(n1)CCN(CC(=O)N1CCN(C3CCC3)CC1)C2 [Compound 246, 6-[2-(4-cyclobutylpiperazin-1-yl)-2-oxoethyl]-N,N-dimethyl-5,6,7,8-tetrahydropyrido[4,3-d]pyrimidin-2-amine]
> 6.00	O=C(CN1CCc2nc(-c3ccccc3)ncc2C1)N1CCN(C2CCC2)CC1 [Compound 247, 6-[2-(4-cyclobutylpiperazin-1-yl)-2-oxoethyl]-2-phenyl-5,6,7,8-tetrahydropyrido[4,3-d]pyrimidine]
> 6.00	O=C(CN1CCc2nn(-c3ncccn3)cc2C1)N1CCN(C2CCC2)CC1 [Compound 248, 5-[2-(4-cyclobutylpiperazin-1-yl)-2-oxoethyl]-2-pyrimidin-2-yl-4,5,6,7-tetrahydro-2H-pyrazolo[4,3-c]pyridine]
> 6.00	CC(=O)Cc1ccc2c(c1)CCN(CC(=O)N1CCN(C3CCC3)CC1)C2 [Compound 249, 1-{2-[2-(4-cyclobutylpiperazin-1-yl)-2-oxoethyl]-1,2,3,4-tetrahydroisoquinolin-6-yl}acetone]
> 6.00	CC(O)Cc1ccc2c(c1)CCN(CC(=O)N1CCN(C3CCC3)CC1)C2 (stereo not drawn) [Compound 250, 1-{2-[2-(4-cyclobutylpiperazin-1-yl)-2-oxoethyl]-1,2,3,4-tetrahydroisoquinolin-6-yl}propan-2-ol]
> 6.00	O=C(CN1CCc2c(cnn2-c2cncnc2)C1)N1CCN(C2CCC2)CC1 [Compound 251, 5-[2-(4-cyclobutylpiperazin-1-yl)-2-oxoethyl]-1-pyrimidin-5-yl-4,5,6,7-tetrahydro-1H-pyrazolo[4,3-c]pyridine]
> 6.00	O=C(CN1CCc2nn(-c3cncnc3)cc2C1)N1CCN(C2CCC2)CC1 [Compound 252, 5-[2-(4-cyclobutylpiperazin-1-yl)-2-oxoethyl]-2-pyrimidin-5-yl-4,5,6,7-tetrahydro-2H-pyrazolo[4,3-c]pyridine]
> 6.00	O=C(CN1CCc2nn(-c3cccnn3)cc2C1)N1CCN(C2CCC2)CC1 [Compound 255, 5-[2-(4-cyclobutylpiperazin-1-yl)-2-oxoethyl]-2-pyridazin-3-yl-4,5,6,7-tetrahydro-2H-pyrazolo[4,3-c]pyridine]

pKi	Compound
> 6.00	COc1ncc(-n2cc3c(n2)CCN(CC(=O)N2CCN(C4CCC4)CC2)C3)cn1 [Compound 256, 5-[2-(4-cyclobutylpiperazin-1-yl)-2-oxoethyl]-2-(2-methoxypyrimidin-5-yl)-4,5,6,7-tetrahydro-2H-pyrazolo[4,3-c]pyridine]
> 6.00	COc1ncc(-n2ncc3c2CCN(CC(=O)N2CCN(C4CCC4)CC2)C3)cn1 [Compound 257, 5-[2-(4-cyclobutylpiperazin-1-yl)-2-oxoethyl]-1-(2-methoxypyrimidin-5-yl)-4,5,6,7-tetrahydro-1H-pyrazolo[4,3-c]pyridine]
> 6.00	O=C(CN1CCc2nn(-c3ccc(N4CCCC4)nn3)cc2C1)N1CCN(C2CCC2)CC1 [Compound 258, 5-[2-(4-cyclobutylpiperazin-1-yl)-2-oxoethyl]-2-(6-pyrrolidin-1-ylpyridazin-3-yl)-4,5,6,7-tetrahydro-2H-pyrazolo[4,3-c]pyridine]
> 6.00	CN(C)c1ccc(-n2cc3c(n2)CCN(CC(=O)N2CCN(C4CCC4)CC2)C3)nn1 [Compound 259, 6-{5-[2-(4-cyclobutylpiperazin-1-yl)-2-oxoethyl]-4,5,6,7-tetrahydro-2H-pyrazolo[4,3-c]pyridin-2-yl}-N,N-dimethylpyridazin-3-amine]
> 6.00	O=C(CN1CCc2nn(-c3ccc(C4CC4)nn3)cc2C1)N1CCN(C2CCC2)CC1 [Compound 260, 5-[2-(4-cyclobutylpiperazin-1-yl)-2-oxoethyl]-2-(6-cyclopropylpyridazin-3-yl)-4,5,6,7-tetrahydro-2H-pyrazolo[4,3-c]pyridine]
> 6.00	Cc1ccc(-n2cc3c(n2)CCN(CC(=O)N2CCN(C4CCC4)CC2)C3)nc1 [Compound 261, 5-[2-(4-cyclobutylpiperazin-1-yl)-2-oxoethyl]-2-(5-methylpyridin-2-yl)-4,5,6,7-tetrahydro-2H-pyrazolo[4,3-c]pyridine]
> 6.00	Cn1cc(-n2cc3c(n2)CCN(CC(=O)N2CCN(C4CCC4)CC2)C3)ccc1=O [Compound 262, 5-{5-[2-(4-cyclobutylpiperazin-1-yl)-2-oxoethyl]-4,5,6,7-tetrahydro-2H-pyrazolo[4,3-c]pyridin-2-yl}-1-methylpyridin-2(1H)-one]
> 6.00	Cn1cc(-n2ncc3c2CCN(CC(=O)N2CCN(C4CCC4)CC2)C3)ccc1=O [Compound 263, 5-{5-[2-(4-cyclobutylpiperazin-1-yl)-2-oxoethyl]-4,5,6,7-tetrahydro-1H-pyrazolo[4,3-c]pyridin-1-yl}-1-methytpyridin-2(1H)-one]
> 6.00	Cc1ccc(-n2cc3c(n2)CN(CC(=O)N2CCN(C4CCC4)CC2)CC3)nn1 [Compound 264, 6-[2-(4-cyclobutylpiperazin-1-yl)-2-oxoethyl]-2-(6-methylpyridazin-3-yl)-4,5,6,7-tetrahydro-2H-pyrazolo[3,4-c]pyridine]
> 6.00	O=C(CN1CCc2sccc2C1)N1CCN(C2CCC2)CC1 [Compound 265, 5-[2-(4-cyclobutylpiperazin-1-yl)-2-oxoethyl]-4,5,6,7-tetrahydrothieno[3,2-c]pyridine]
> 6.00	Cn1cc(-c2ccc3c(c2)CCN(CC(=O)N2CCN(C4CCC4)CC2)C3)cnc1=O [Compound 266, 5-{2-[2-(4-cyclobutylpiperazin-1-yl)-2-oxoethyl]-1,2,3,4-tetrahydroisoquinolin-6-yl}-1-methylpyrimidin-2(1H)-one]
> 6.00	O=C(CN1CCc2nn(-c3cncc(Cl)n3)cc2C1)N1CCN(C2CCC2)CC1 [Compound 267, 2-(6-chloropyrazin-2-yl)-5-[2-(4-cyclobutylpiperazin-1-yl)-2-oxoethyl]-4,5,6,7-tetrahydro-2H-pyrazolo[4,3-c]pyridine]
> 6.00	O=C(CN1CCc2nn(-c3cncc(N4CCCC4)n3)cc2C1)N1CCN(C2CCC2)CC1 [Compound 268, 5-[2-(4-cyclobutylpiperazin-1-yl)-2-oxoethyl]-2-(6-pyrrolidin-1-ylpyrazin-2-yl)-4,5,6,7-tetrahydro-2H-pyrazolo[4,3-c]pyridine]
> 6.00	O=C(CN1CCc2sc(-c3cncnc3)cc2C1)N1CCN(C2CCC2)CC1 [Compound 269, 5-[2-(4-cyclobutylpiperazin-1-yl)-2-oxoethyl]-2-pyrimidin-5-yl-4,5,6,7-tetrahydrothieno[3,2-c]pyridine]
> 6.00	Cn1cc(-c2cc3c(s2)CCN(CC(=O)N2CCN(C4CCC4)CC2)C3)ccc1=O [Compound 270, 5-{5-[2-(4-cyclobutylpiperazin-1-yl)-2-oxoethyl]-4,5,6,7-tetrahydrothieno[3,2-c]pyridin-2-yl}-1-methylpyridin-2(1H)-one]
> 6.00	N#Cc1cncc(-n2cc3c(n2)CCN(CC(=O)N2CCN(C4CCC4)CC2)C3)n1 [Compound 271, 6-{5-[2-(4-cyclobutylpiperazin-1-yl)-2-oxoethyl]-4,5,6,7-tetrahydro-2H-pyrazolo[4,3-c]pyridin-2-yl}pyrazine-2-carbonitrile]
